Patent publication US12048713B2, “Pharmaceutical composition for reducing protein bound uremic toxins” (Frimline Private Limited, priority 2020, dated 2024)

System: 5/6 Nephrectomy induced chronic kidney disease (CKD) in rat
Test: 5/6 Nephrectomy induced chronic kidney disease in rat: IS and PCS blood level, mortality
Assay type: in vivo, Wistar rats (Rattus norvegicus)
Settings: for IS Mean: Indoxyl Sulphate blood level, disease control 7.33; for IS Mean / PCS Mean: p.o. daily for 13 weeks; for PCS Mean: P-Cresyl Sulphate blood level, disease control 1.13; for IS % Decreased: decrease in Indoxyl Sulphate blood level compared to disease control; for IS % Decreased / PCS % Decreased: p.o. daily 13 weeks; for PCS % Decreased: decrease in P-Cresyl Sulphate blood level compared to disease control
Experimental: The effect of the compositions of the present invention and other test and reference compositions was studied in animals. For this study, screening effect of synergistic combination or composition/formulation comprising Inulin and other active ingredients against 5/6 Nephrectomy induced chronic kidney disease (CKD) in rat was performed. The following trials were carried out:
Eighty Four (84) female rats (Wistar rats (Rattus norvegicus)) divided into 14 groups (6 per group) were maintained in animal house in a light/dark atmosphere based on a 12 hour cycle having temperature and relative humidity in the range of 19 to 25±2° C. and 30-70%, respectively. To maintain the appropriate conditions, temperature and relative humidity were recorded three times daily. All animals were acclimatized for a minimum period of five days. Animals were maintained in the test setup for minimum 30 minutes once during the acclimatization period to reduce the stress. Animals were weighed on the day of receipt and observed daily for abnormalities if any. Detailed records of acclimatization were also maintained. Rats were housed 3 per cage in clean, sterilized Polypropylene cages. During complete experiment, animals were supplied with the standard certified rat pellet feed and drinking water treated by the reverse osmosis ad libitum.
In order to evaluate the activity against chronic kidney disease, eighty four (84) rats were screened and divided into Fourteen (14) groups. For a comparative analysis, groups were divided as normal control (Group 1 (G1)), sham Control (Group 2 (G2)), disease control (Group 3 (G3)), treatment groups with individual components (Group 4 (G4), Group 5 (G5) and Group 6 (G6) as Inulin, Betaine and Resistant Starch respectively), test composition (Group 7 (G7) to Group 11 (G11) (Combination of Inulin with Betaine at different dose level), test composition Group 12 (G12) to Group 13 (G13) (Combination of Inulin, Betaine and Resistant Starch) and reference standard (Group 14 (G14)) (Activated Charcoal). Table 1 provides the details of the various groups and treatments conducted in the trial wherein G4 to G14 are treatment groups. Experiment was carried out for 3 months in two stages.
The animals under consideration were examined for a study period of 13 weeks and two-stage surgical procedure for kidney ligation and removal were performed.
Stage one: A ventral midline incision into the abdomen was made to expose the animal's left kidney and the organ was freed from the surrounding tissue. A piece of suture was placed and ligated around each pole of the kidney at its one-third position. The one-third kidney on each pole was excised beyond the ligatures and the abdominal incision was closed.
Stage two: This procedure was performed 7 days after stage one. The animals were placed in ventral recumbency and an incision was made parallel to the midline. The abdominal cavity was entered, and the right kidney was made free from the surrounding tissue. The kidney was gently pulled out from the incision and the adrenal gland was freed and replaced into the abdominal cavity. The renal blood vessels and the ureter were ligated or cauterized. The kidney was then removed by transecting the vessels and ureter just distal to the ligature or cauterized section. The skin incision was closed with wound clips.
Treatment: All treatment groups were treated on daily basis for 13 weeks after stage two of surgery. Blood collection and biochemistry analysis were done after completion of the treatment of all treated groups at the end of 13th week treatment.

| Compound | IS Mean [mg/L] | PCS Mean [mg/L] | IS % Decreased [%] | PCS % Decreased [%] |
| --- | --- | --- | --- | --- |
| C[N+](C)(C)CC(=O)O [Betaine] | 7.01 | 1.09 | 4.37 | 3.54 |
| Inulin | 5.55 | 0.84 | 24.29 | 25.66 |
| Resistant Starch [RS] | 6.5 | 1.01 | 11.33 | 10.62 |
